# From paper PMC7253423, “Quassinoid analogs with enhanced efficacy for treatment of hematologic malignancies target the PI3Kγ isoform” (Communications Biology, 2020)
# Several values for one entry are separate records, joined by “and”; a condition that tells them apart may be missing. Identical values can stand only once.
# Assays:
# [1] = test system: hematologic malignancies derived cell lines; test: Cell viability assay, panel of hematologic malignancy derived cell lines; format: cell-based, human; details: 100 nM, 72 h, lymphoma, leukemia and multiple myeloma cell lines (13 cell lines for analogs)
# Method: 5000 cells as indicated were cultured in 96-well plate with 100 μl of media. On the next day, Brusatol or associated analogs were added once to the cells without media change. After treatment, the cells were incubated with 100 μl buffer for 10 min at room temperature following the instructions of CellTiter-Glo kit (Promega, Madison, WI). Luminescence was detected using a multi-mode reader Cytation 5 (BioTek, Winooski, VT). […] Two independent experiments done in duplicates were performed.
# [2] = Cytotoxicity, cell viability assay in normal cells; format: cell-based, human; details: human, relative cell viability (Fig 6a), replicates
# Excerpt: (§1) Human peripheral blood mononuclear cells (PBMCs), normal T-cells and B-cells were provided by the University of Pennsylvania Human Immunology Core (HIC), and Patient-derived xenografts (PDXs) were obtained from Fox Chase Cancer Center (FCCC). These samples were from different unidentified and healthy donors with written, informed consent. All the procedures were approved by the Institutional Review Board (IRB) and conducted according to the declarations of Helsinki protocols.
# (§2) 5000 cells as indicated were cultured in 96-well plate with 100 μl of media. […] After treatment, the cells were incubated with 100 μl buffer for 10 min at room temperature following the instructions of CellTiter-Glo kit (Promega, Madison, WI). Luminescence was detected using a multi-mode reader Cytation 5 (BioTek, Winooski, VT). […] Two independent experiments done in duplicates were performed.
# [3] = In vivo toxicity test, survival rate; set-up: species or system NOD/SCID mice
# Method: The survival rate was recorded to monitor the tolerance of the compounds in these mice.
# [4] = test system: Raji cells; test: Western blot of PI3K/AKT signaling proteins; format: cell-based, human; details: Raji, 0, 50 nM, 100 nM; 0, 12 h, 24 h
# Method: (§3) Western blot analyses were performed as previously described. Briefly, total cell lysates were separated by SDS-PAGE gel and transferred to nitrocellulose membrane. The membranes were blocked with 5% non-fat milk, probed with specific antibodies, and visualized using the Odyssey scanner (LiCor Inc., Lincoln, NE).
# [5] = test system: MOLM14 xenografts; test: mRNA expression in xenograft tumors in vivo; set-up: species or system NOD/SCID mice; details: xenograft tumors of treated mice
# Method: Real-time PCR experiments were performed as previously described. The experiments were performed in triplicate.
# (§4) Six-week-old male NOD.CB17-Prkdc^scid/J (NOD/SCID) mice (Jackson Labs, Bar Harbor, ME, USA) were used as the human-in-mouse xeno-transplantation model. MOLM14 cells (1 × 10^7 cells) were injected into the subcutaneous space on the left flank of the mice. […] Body weight and tumor size were monitored before every injection. After treatment for 2 weeks, the mice were euthanized by CO2 inhalation and the tumors were carefully excised. The tumor volume (mm^3) was measured and calculated using the formula (a × b × b)/2 (a, the largest diameter of two measurements; b, the smallest diameter of two measurements).
# [6] = test system: MOLM14 xenografts; test: In vivo tumorigenic assay using xenografts, tumor size; set-up: species or system NOD/SCID mice; key to tumor size (Fig 5d&5e), individual mice: tumor volume in mm^3, calculated as (a × b × b)/2; details: for tumor size (Fig 5d&5e), individual mice: MOLM14 xenograft
# Method: as §4
# [7] = Cytotoxicity, cell viability assay in normal cells; format: cell-based; details: human, replicates
# Excerpt: as §1, §2
# [8] = test system: MOLM14 cells; test: Cell viability assay (CellTiter-Glo luminescence); format: cell-based; details: Homo sapiens
# Method: as §2
# [9] = test system: SU-DHL-4 cells; test: Cell viability assay (CellTiter-Glo luminescence); format: cell-based, human; details: Homo sapiens, SU-DHL-4, 144 h
# Method: as §2
# [10] = test system: Raji cells; test: Cell viability assay (CellTiter-Glo luminescence); format: cell-based, human; details: Homo sapiens
# Method: as §2
# [11] = biological target: T1, PIK3C2B encoded protein (PI3KC2β) (Homo sapiens, UniProt O00750); test: Streptavidin pull-down and mass spectrometry; format: binding; details: Raji lysates, gene PIK3C2B
# T1 construct: endogenous in cells; host or cells: Raji cells (lysate)
# Method: (§5) Two hundred million Raji cells were harvested and lysed with RIPA buffer [1% Nonidet P-40 (NP-40), 10 mM Tris (pH8.0), 2 mM EDTA, 150 mM NaCl, supplemented with protease inhibitors (1 mM phenylmethylsulphonyl fluoride (PMSF), 1 μg/ml each Aprotinin, Pepstatin, and Leupeptin)]. Twenty milligram lysates were combined with magnetic Streptavidin beads as well as biotin-conjugated compounds 51046, 51048, or 51052, respectively. The complexes were incubated overnight with rotation at 4 °C. The immunoprecipitated samples were washed with RIPA three times and resolved on an SDS-PAGE gel.
# (§6) The following Mass Spectrometry proteomics resources and services are provided by the Quantitative Proteomics Resource Core at School of Medicine at the University of Pennsylvania. Briefly, the peptides were extracted from the gel band and analyzed with an Orbitrap Fusion (Thermo Fisher Scientific, San Jose, CA, USA) attached to an EasyLC 1000 system (Thermo Fisher Scientific, San Jose, CA, USA) at 400 nL/min. The raw MS data were processed using MaxQuant (Version 1.5.3.30)[61], and searched with the UniProt human database. Then the target-decoy approach was used to filter the search results, in which the false discovery rate was less than 1% at the peptide and protein level.
# [12] = biological target: T2, JUP encoded protein (junction plakoglobin) (Homo sapiens, UniProt P14923); test: Streptavidin pull-down and mass spectrometry; format: binding; details: Raji lysates, gene JUP
# T2 construct: endogenous in cells; host or cells: Raji cells (lysate)
# Method: as §5, §6
# [13] = biological target: T3, GAPDH (Homo sapiens, UniProt P04406); test: Competitive binding pull-down assay in SU-DHL-4 cell lysates, western blot; details: SU-DHL-4 lysates
# T3 construct: endogenous in cells; host or cells: SU-DHL-4 cells (lysate)
# Method: (§7) Thirty microgram of purified GST-tagged proteins were pre-cleared with Dynabeads M-280 Streptavidin (Invitrogen, Carlsbad, CA, USA). […] The complexes were harvested and washed with PBS. The collected beads were mixed with SDS loading buffer for further analysis.
# as §3
# [14] = biological target: T4, AKT1 (Homo sapiens, UniProt P31749); test: as above; details: SU-DHL-4 lysates
# T4 construct: endogenous in cells; host or cells: SU-DHL-4 cells (lysate)
# Method: as §7, §3
# [15] = biological target: T5, PI3Kγ (Homo sapiens, UniProt P48736); test: as above; details: SU-DHL-4 lysates, biotin derivative alone
# T5 construct: endogenous in cells; host or cells: SU-DHL-4 cells (lysate)
# Method: as §7, §3
# [16] = biological target: T6, GST-tagged PI3Kγ protein (Homo sapiens, UniProt P48736); test: In vitro pull-down assay with purified protein; format: binding; details: 0, 300 μM, or 500 μM compound, Dynabeads M-280 Streptavidin
# T6 construct: made in house; host or cells: E. coli BL21 (DE3)
# Excerpt: PIK3CG cDNA (Plasmid #20574) was purchased from Addgene and cloned into a pGEX-6P-1 vector (GE Healthcare, Madison, WI, USA) with SalI and NotI (NEB, USA). This GST-tagged PIK3CG plasmid was transformed into E. coli BL21 (DE3)-competent cells (Life Technologies, Carlsbad, CA, USA) for in vitro expression according to Molecular Cloning (Third Edition).
# as §7
# [17] = biological target: T7, TP73 encoded protein (P73) (Homo sapiens, UniProt O15350); test: Streptavidin pull-down and mass spectrometry; format: binding; details: Raji lysates, gene TP73
# T7 construct: endogenous in cells; host or cells: Raji cells (lysate)
# Method: as §5, §6
# [18] = biological target: T8, PIK3CG encoded protein (PI3Kγ) (Homo sapiens, UniProt P48736); test: Streptavidin pull-down and mass spectrometry; format: binding; details: Raji lysates, gene PIK3CG
# T8 construct: endogenous in cells; host or cells: Raji cells (lysate)
# Method: as §5, §6
# [19] = relative cell viability (Fig 6b)
# [20] = relative cell viability (Fig 6c)
# T3 sequence (P04406 whole entry): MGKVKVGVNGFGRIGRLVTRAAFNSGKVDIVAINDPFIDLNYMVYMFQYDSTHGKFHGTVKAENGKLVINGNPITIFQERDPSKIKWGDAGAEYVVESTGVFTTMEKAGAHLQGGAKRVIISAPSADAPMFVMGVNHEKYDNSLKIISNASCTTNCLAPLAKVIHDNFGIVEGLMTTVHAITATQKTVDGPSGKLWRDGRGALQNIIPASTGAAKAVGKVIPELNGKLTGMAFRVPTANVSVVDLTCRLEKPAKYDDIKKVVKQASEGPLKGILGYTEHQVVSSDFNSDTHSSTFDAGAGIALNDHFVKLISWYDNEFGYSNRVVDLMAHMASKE
# T6 sequence (P48736 whole entry): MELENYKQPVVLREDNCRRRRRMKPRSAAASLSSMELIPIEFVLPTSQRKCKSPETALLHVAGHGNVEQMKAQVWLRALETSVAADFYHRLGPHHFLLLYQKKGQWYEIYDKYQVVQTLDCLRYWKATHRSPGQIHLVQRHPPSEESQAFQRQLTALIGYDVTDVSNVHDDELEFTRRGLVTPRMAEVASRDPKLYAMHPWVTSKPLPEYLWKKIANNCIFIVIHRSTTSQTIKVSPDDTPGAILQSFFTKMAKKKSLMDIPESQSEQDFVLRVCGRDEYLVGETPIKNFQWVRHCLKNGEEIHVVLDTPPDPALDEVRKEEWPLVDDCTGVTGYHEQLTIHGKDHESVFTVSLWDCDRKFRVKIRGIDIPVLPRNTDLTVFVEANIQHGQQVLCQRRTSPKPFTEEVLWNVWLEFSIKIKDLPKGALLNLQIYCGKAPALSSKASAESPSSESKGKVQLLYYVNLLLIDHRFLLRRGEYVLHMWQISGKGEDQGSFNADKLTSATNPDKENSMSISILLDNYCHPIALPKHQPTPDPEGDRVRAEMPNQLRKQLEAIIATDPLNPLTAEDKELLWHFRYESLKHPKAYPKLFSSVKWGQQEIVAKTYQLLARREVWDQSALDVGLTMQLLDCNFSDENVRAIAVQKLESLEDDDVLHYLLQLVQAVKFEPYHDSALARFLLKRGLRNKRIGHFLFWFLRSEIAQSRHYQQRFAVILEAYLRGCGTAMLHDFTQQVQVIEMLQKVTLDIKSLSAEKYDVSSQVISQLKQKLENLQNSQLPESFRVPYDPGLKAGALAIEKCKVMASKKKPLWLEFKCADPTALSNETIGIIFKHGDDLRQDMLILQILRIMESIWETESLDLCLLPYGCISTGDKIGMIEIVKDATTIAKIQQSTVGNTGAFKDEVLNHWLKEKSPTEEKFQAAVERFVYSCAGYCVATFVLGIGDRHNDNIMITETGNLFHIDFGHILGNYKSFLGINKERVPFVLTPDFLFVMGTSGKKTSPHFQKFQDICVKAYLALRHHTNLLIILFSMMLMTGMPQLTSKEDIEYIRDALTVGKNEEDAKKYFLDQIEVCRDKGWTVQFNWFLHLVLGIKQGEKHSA
# T5 sequence (P48736 whole entry): as above
# T8 sequence (P48736 whole entry): as above
# T7 sequence (O15350 whole entry): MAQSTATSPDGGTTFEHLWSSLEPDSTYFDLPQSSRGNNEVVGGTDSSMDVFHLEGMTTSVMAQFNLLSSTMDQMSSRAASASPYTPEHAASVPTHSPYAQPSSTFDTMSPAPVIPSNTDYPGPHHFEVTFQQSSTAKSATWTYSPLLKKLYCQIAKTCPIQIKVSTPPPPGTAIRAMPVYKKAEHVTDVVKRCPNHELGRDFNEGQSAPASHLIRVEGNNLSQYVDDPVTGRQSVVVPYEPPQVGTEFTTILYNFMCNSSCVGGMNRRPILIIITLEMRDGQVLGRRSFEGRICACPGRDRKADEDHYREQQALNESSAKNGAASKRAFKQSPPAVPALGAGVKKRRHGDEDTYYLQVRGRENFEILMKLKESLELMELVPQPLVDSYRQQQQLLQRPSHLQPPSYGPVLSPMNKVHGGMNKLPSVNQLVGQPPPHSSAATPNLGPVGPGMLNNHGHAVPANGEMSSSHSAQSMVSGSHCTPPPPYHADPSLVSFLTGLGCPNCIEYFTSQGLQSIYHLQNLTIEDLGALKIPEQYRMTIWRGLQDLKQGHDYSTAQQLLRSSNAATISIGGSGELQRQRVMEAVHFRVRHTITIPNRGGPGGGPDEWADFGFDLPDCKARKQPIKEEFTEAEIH
# T4 sequence (P31749 whole entry): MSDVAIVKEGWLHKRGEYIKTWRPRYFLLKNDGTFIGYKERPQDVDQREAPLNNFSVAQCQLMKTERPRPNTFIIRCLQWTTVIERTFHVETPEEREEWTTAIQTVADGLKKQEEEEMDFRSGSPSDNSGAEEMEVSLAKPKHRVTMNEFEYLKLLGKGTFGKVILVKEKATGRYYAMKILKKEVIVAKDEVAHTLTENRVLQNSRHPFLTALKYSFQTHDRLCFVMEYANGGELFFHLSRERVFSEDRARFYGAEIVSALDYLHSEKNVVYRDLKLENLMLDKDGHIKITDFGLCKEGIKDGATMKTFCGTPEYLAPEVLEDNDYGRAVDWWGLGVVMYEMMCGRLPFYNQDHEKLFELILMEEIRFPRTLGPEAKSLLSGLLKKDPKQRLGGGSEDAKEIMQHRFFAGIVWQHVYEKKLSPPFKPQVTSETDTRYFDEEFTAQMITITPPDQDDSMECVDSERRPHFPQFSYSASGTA
# T2 sequence (P14923 whole entry): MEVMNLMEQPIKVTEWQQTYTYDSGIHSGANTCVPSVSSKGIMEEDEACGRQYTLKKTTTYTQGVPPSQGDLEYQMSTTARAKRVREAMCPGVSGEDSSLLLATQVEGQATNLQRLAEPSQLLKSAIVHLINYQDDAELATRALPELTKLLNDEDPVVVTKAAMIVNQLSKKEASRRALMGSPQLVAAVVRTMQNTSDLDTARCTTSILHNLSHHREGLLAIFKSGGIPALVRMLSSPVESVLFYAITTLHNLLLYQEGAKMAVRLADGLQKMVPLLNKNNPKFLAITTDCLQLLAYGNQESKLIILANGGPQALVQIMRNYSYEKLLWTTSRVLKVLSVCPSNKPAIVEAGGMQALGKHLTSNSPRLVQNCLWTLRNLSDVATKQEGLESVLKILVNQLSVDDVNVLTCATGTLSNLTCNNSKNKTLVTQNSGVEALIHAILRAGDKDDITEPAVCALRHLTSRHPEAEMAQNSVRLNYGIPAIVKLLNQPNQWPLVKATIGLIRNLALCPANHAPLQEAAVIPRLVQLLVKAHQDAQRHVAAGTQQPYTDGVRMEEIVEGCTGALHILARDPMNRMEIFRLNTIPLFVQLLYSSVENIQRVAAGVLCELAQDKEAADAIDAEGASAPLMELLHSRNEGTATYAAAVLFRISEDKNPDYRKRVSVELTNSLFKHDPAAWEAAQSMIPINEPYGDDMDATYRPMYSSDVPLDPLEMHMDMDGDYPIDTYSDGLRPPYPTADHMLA
# T1 sequence (O00750 whole entry): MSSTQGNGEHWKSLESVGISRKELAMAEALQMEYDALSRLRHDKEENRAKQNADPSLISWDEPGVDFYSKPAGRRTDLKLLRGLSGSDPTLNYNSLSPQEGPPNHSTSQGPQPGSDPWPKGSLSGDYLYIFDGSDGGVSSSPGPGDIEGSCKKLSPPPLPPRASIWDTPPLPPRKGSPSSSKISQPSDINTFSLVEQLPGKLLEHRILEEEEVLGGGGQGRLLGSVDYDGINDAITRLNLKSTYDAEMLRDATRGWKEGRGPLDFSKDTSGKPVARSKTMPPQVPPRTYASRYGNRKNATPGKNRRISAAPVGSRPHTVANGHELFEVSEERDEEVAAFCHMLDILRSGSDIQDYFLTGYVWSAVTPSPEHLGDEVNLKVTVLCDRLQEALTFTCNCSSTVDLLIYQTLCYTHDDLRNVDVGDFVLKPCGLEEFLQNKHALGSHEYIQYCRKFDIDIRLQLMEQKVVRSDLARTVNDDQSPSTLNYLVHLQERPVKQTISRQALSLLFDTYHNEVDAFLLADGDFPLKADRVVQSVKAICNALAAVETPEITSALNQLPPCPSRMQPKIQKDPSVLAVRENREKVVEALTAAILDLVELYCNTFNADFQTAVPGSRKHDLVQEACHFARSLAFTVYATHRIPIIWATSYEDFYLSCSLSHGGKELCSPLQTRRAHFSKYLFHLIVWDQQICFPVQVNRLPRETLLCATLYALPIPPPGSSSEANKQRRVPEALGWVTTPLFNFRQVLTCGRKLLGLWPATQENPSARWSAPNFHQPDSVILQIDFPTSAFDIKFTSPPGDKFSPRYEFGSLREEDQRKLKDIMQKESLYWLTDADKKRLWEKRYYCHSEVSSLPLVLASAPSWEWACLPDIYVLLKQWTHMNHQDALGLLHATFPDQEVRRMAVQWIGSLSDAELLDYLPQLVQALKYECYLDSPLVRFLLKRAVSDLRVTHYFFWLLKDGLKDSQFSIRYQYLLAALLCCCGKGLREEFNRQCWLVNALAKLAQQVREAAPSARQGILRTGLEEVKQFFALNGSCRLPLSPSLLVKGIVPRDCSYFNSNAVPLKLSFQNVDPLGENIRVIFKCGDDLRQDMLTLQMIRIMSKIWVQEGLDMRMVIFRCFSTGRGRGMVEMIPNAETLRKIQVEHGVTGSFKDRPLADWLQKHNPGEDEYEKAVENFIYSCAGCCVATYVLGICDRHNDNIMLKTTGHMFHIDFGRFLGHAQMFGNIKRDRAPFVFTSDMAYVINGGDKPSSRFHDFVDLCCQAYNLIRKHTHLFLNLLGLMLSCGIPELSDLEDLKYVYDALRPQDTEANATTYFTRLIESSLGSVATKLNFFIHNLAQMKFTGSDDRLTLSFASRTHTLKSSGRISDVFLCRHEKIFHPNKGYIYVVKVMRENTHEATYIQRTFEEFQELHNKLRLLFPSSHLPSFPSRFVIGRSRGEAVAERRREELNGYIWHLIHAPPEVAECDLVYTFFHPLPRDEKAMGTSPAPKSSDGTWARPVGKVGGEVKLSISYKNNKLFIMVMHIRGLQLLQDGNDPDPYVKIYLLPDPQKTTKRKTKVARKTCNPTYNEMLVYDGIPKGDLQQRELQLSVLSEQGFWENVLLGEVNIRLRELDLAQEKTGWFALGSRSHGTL
structure (smiles),measurement,setting,value
COC(=O)C12OCC34C(CC5C(C)=C(OC(=O)CC(C)N)C(=O)CC5(C)C3C(O)C1O)OC(=O)C(OC(=O)C=C(C)C)C24 (centres unmarked) [#26],inhibition of cell viability in panel of cell lines,[1],significantly inhibit
same,viability at 0.000244141 μM,[2],103%
same,viability at 0.00390625 μM,[2],85%
same,viability at 0.015625 μM,[2],83.1%
same,viability at 0.0625 μM,[2],80.7%
same,viability at 1 μM,[2],61.8%
same,toxicity in vivo (survival),"[3]; 10 mg/kg intraperitoneally every other day, monitored 24 days, 4 mice per group",did not show any obvious signs of toxicity
same,"survival event status per mouse (Fig 6i; 1 = event/death, 0 = censored)","[3]; 10mg/kg, Days Post-treatment 24",0
same,"suppression of AKT1, GSK3, and mTOR levels",[4],largely similar to Brusatol
same,PIK3CG and GSK3B mRNA expression in vivo,[5],inhibited
same,"tumor size, inhibitory response","[6]; 2 mg/kg intraperitoneally three times per week, 2 weeks, vs PBS control",strong and rapid inhibitory response
same,"tumor size (Fig 5d&5e), individual mice",[6]; 0d,50.8503 and 81.4689 and 79.571 and 83.4481 and 51.3256 and 101.436
same,"tumor size (Fig 5d&5e), individual mice",[6]; 2d,106.443 and 103.871 and 87.5139 and 68.1449 and 136.175 and 126.294
same,"tumor size (Fig 5d&5e), individual mice",[6]; 4d,67.7106 and 172.977 and 64.3385 and 73.9417 and 166.255 and 100.157
same,"tumor size (Fig 5d&5e), individual mice",[6]; 6d,174.013 and 301.003 and 181.944 and 99.2269 and 96.1716 and 48.5716
same,"tumor size (Fig 5d&5e), individual mice",[6]; 8d,185.825 and 124.577 and 101.125 and 181.307 and 468.229 and 312.088
same,"tumor size (Fig 5d&5e), individual mice",[6]; 10d,259.199 and 230.595 and 161.819 and 478.339 and 646.864 and 395.944
same,"tumor size (Fig 5d&5e), individual mice",[6]; 12d,359.944 and 415.708 and 136.428 and 853.399 and 887.802 and 629.337
same,viability at 0.000244141 μM,[7]; [19],96.2%
same,viability at 0.00390625 μM,[7]; [19],86%
same,viability at 0.015625 μM,[7]; [19],81.6%
same,viability at 0.0625 μM,[7]; [19],74.5%
same,viability at 1 μM,[7]; [19],82.6%
same,viability at 0.000244141 μM,[7]; [20],111%
same,viability at 0.00390625 μM,[7]; [20],112%
same,viability at 0.015625 μM,[7]; [20],115%
same,viability at 1 μM,[7]; [20],93.8%
same,viability at 0.0390625 µM,"[8]; MOLM-14, read-out: relative cell viability (Fig 6e), replicates, MOLM14, Con. 0.0390625 μM, fraction of 0 μM control",12.5%
same,viability at 0.15625 µM,"[8]; MOLM-14, read-out: relative cell viability (Fig 6e), replicates, MOLM14, Con. 0.15625 μM, fraction of 0 μM control",7.37%
same,viability at 0.625 µM,"[8]; MOLM-14, read-out: relative cell viability (Fig 6e), replicates, MOLM14, Con. 0.625 μM, fraction of 0 μM control",5.55%
same,viability at 10 µM,"[8]; MOLM-14, read-out: relative cell viability (Fig 6e), replicates, MOLM14, Con. 10 μM, fraction of 0 μM control",4.05%
same,viability at 0.00244141 µM,"[9]; read-out: relative cell viability (Fig 6d), replicates, SU-DHL-4, Con. 0.00244141 μM, fraction of 0 μM control",125%
same,viability at 0.0390625 µM,"[9]; read-out: relative cell viability (Fig 6d), replicates, SU-DHL-4, Con. 0.0390625 μM, fraction of 0 μM control",36.6%
same,viability at 0.15625 µM,"[9]; read-out: relative cell viability (Fig 6d), replicates, SU-DHL-4, Con. 0.15625 μM, fraction of 0 μM control",18.6%
same,viability at 0.625 µM,"[9]; read-out: relative cell viability (Fig 6d), replicates, SU-DHL-4, Con. 0.625 μM, fraction of 0 μM control",9.14%
same,viability at 10 µM,"[9]; read-out: relative cell viability (Fig 6d), replicates, SU-DHL-4, Con. 10 μM, fraction of 0 μM control",6.62%
same,IC50,"[10]; analogs, 72 h, Fig. 5c, read-out: IC50",0.0376 µM
same,viability at 0.00244141 µM,"[10]; read-out: relative cell viability (Fig 6f), replicates, Raji, Con. 0.00244141 μM, fraction of 0 μM control",105%
same,viability at 0.0390625 µM,"[10]; read-out: relative cell viability (Fig 6f), replicates, Raji, Con. 0.0390625 μM, fraction of 0 μM control",35%
same,viability at 0.15625 µM,"[10]; read-out: relative cell viability (Fig 6f), replicates, Raji, Con. 0.15625 μM, fraction of 0 μM control",16.4%
same,viability at 0.625 µM,"[10]; read-out: relative cell viability (Fig 6f), replicates, Raji, Con. 0.625 μM, fraction of 0 μM control",7.06%
same,viability at 10 µM,"[10]; read-out: relative cell viability (Fig 6f), replicates, Raji, Con. 10 μM, fraction of 0 μM control",4.98%
COC(=O)C12OCC34C(CC5C(C)=C(OC(=O)CCCCC6SCC7NC(=O)NC76)C(=O)CC5(C)C3C(O)C1O)OC(=O)C(OC(=O)C=C(C)C)C24 (centres unmarked) [compound 51048],Score (sum of the ion scores of all peptides identified),[11],5.9631
same,Score (sum of the ion scores of all peptides identified),[12],11.324
same,GAPDH pulled down,[13],little or no detectable levels
same,AKT1 pulled down,[14],little or no detectable levels
same,binding activity with PI3Kγ,[15],relatively strong
COC(=O)C12OCC34C(CC5C(C)=C(OC(=O)CCCCCNC(=O)CCCCC6SCC7NC(=O)NC76)C(=O)CC5(C)C3C(O)C1O)OC(=O)C(OC(=O)C=C(C)C)C24 (centres unmarked) [compound 51052],association with GST-tagged PI3Kγ,[16],formed a complex
same,Score (sum of the ion scores of all peptides identified),[17],6.0132
same,Score (sum of the ion scores of all peptides identified),[18],6.132
